Data from PubChem BioAssay AID2060912 (Molecular Pharmacology Branch, DTP, NCI, 2025).

Tested on: HUVEC/MSC spheroids viability
Assay: Human HUVEC/MSC cell line growth inhibition [KRAS2];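 as to viability, T/C: percent of DMSO vehicle control luminescence so 100% = untreated viability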
Conditions: for viability, T/C: stronger effect = lower value; active = viability on the fitted dose curve at most 10% of control; inactive = the rest
Procedure, shortened: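 HUVEC + hMSC stromal spheroids only, no malignant cells; 37 °C, 5% CO2. Drugs singly and in pairs, half-log series down from clinical Cmax (max 10 microM if Cmax undetermined).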

[1] = curve of first compound, second compound 0.00949 µM
[2] = curve of first compound, second compound 0.03 µM
[3] = curve of first compound, second compound 0.0949 µM
[4] = curve of first compound, second compound 0.3 µM
[5] = curve of first compound, second compound 0.949 µM
[6] = curve of first compound, second compound 3 µM
[7] = second compound 0.00949 µM, first compound 0.0316 µM
[8] = second compound 0.00949 µM, first compound 0.1 µM
[9] = second compound 0.00949 µM, first compound 0.316 µM
[10] = second compound 0.00949 µM, first compound 1 µM
[11] = second compound 0.00949 µM, first compound 3.16 µM
[12] = second compound 0.00949 µM, first compound 10 µM
[13] = second compound 0.03 µM, first compound 0.0316 µM
[14] = second compound 0.03 µM, first compound 0.1 µM
[15] = second compound 0.03 µM, first compound 0.316 µM
[16] = second compound 0.03 µM, first compound 1 µM
[17] = second compound 0.03 µM, first compound 3.16 µM
[18] = second compound 0.03 µM, first compound 10 µM
[19] = second compound 0.0949 µM, first compound 0.0316 µM
[20] = second compound 0.0949 µM, first compound 0.1 µM
[21] = second compound 0.0949 µM, first compound 0.316 µM
[22] = second compound 0.0949 µM, first compound 1 µM
[23] = second compound 0.0949 µM, first compound 3.16 µM
[24] = second compound 0.0949 µM, first compound 10 µM
[25] = second compound 0.3 µM, first compound 0.0316 µM
[26] = second compound 0.3 µM, first compound 0.1 µM
[27] = second compound 0.3 µM, first compound 0.316 µM
[28] = second compound 0.3 µM, first compound 1 µM
[29] = second compound 0.3 µM, first compound 3.16 µM
[30] = second compound 0.3 µM, first compound 10 µM
[31] = second compound 0.949 µM, first compound 0.0316 µM
[32] = second compound 0.949 µM, first compound 0.1 µM
[33] = second compound 0.949 µM, first compound 0.316 µM
[34] = second compound 0.949 µM, first compound 1 µM
[35] = second compound 0.949 µM, first compound 3.16 µM
[36] = second compound 0.949 µM, first compound 10 µM
[37] = second compound 3 µM, first compound 0.0316 µM
[38] = second compound 3 µM, first compound 0.1 µM
[39] = second compound 3 µM, first compound 0.316 µM
[40] = second compound 3 µM, first compound 1 µM
[41] = second compound 3 µM, first compound 3.16 µM
[42] = second compound 3 µM, first compound 10 µM

CCNC(=O)CC1N=C(c2ccc(Cl)cc2)c2cc(OC)ccc2-n2c(C)nnc21 (stereo not given) + C=CC(=O)N1CCN(c2nc(OCC3CCCN3C)nc3c2CCN(c2cccc4cccc(C)c24)C3)CC1CC#N
inactive: viability, T/C [7] 68.5% | viability, T/C [8] 79.5% | viability, T/C [9] 69.5% | viability, T/C [10] 115% | viability, T/C [11] 100% | viability, T/C [12] 90.3% | viability, T/C [13] 82.6% | viability, T/C [14] 76.9% | viability, T/C [15] 79.1% | viability, T/C [16] 108% | viability, T/C [17] 119% | viability, T/C [18] 110% | viability, T/C [19] 73.3% | viability, T/C [20] 63.3% | viability, T/C [21] 78.8% | viability, T/C [22] 115% | viability, T/C [23] 97.8% | viability, T/C [24] 111% | viability, T/C [25] 72.8% | viability, T/C [26] 64.3% | viability, T/C [27] 60.5% | viability, T/C [28] 102% | viability, T/C [29] 91.9% | viability, T/C [30] 104% | viability, T/C [31] 53.3% | viability, T/C [32] 63.1% | viability, T/C [33] 82.7% | viability, T/C [34] 74% | viability, T/C [35] 83.7% | viability, T/C [36] 86.1% | viability, T/C [37] 75.5% | viability, T/C [38] 89.9% | viability, T/C [39] 82.7% | viability, T/C [40] 67.1% | viability, T/C [41] 71.2% | viability, T/C [42] 54.3%
> 10 µM: IC50 [1] | IC50 [2] | IC50 [3] | IC50 [4] | IC50 [5] | IC50 [6]

O=C(c1cc(Cc2n[nH]c(=O)c3ccccc23)ccc1F)N1CCN(C(=O)C2CC2)CC1 + C=CC(=O)N1CCN(c2nc(OCC3CCCN3C)nc3c2CCN(c2cccc4cccc(C)c24)C3)CC1CC#N
inactive: viability, T/C [7] 80.8% | viability, T/C [8] 101% | viability, T/C [9] 89.4% | viability, T/C [10] 82.3% | viability, T/C [11] 80.9% | viability, T/C [12] 112% | viability, T/C [13] 78.2% | viability, T/C [14] 96.2% | viability, T/C [15] 98.7% | viability, T/C [16] 81.2% | viability, T/C [17] 103% | viability, T/C [18] 83.7% | viability, T/C [19] 91.8% | viability, T/C [20] 87.8% | viability, T/C [21] 77.2% | viability, T/C [22] 101% | viability, T/C [23] 88.4% | viability, T/C [24] 100% | viability, T/C [25] 71% | viability, T/C [26] 91.9% | viability, T/C [27] 86.1% | viability, T/C [28] 73.7% | viability, T/C [29] 82.8% | viability, T/C [30] 81.8% | viability, T/C [31] 68.4% | viability, T/C [32] 84.9% | viability, T/C [33] 84.1% | viability, T/C [34] 88.8% | viability, T/C [35] 89.8% | viability, T/C [36] 85.2% | viability, T/C [37] 91.5% | viability, T/C [38] 79.5% | viability, T/C [39] 111% | viability, T/C [40] 102% | viability, T/C [41] 107% | viability, T/C [42] 89.7%
> 10 µM: IC50 [1] | IC50 [2] | IC50 [3] | IC50 [4] | IC50 [5] | IC50 [6]

Cn1nccc1Nc1nccc(-c2cc3c(s2)C(C)(C)N(CCN2CCOCC2)C3=O)n1 + C=CC(=O)N1CCN(c2nc(OCC3CCCN3C)nc3c2CCN(c2cccc4cccc(C)c24)C3)CC1CC#N
2.89 µM: IC50 [3]
3.02 µM: IC50 [4]
2.42 µM: IC50 [5]
2.88 µM: IC50 [1]
inactive: viability, T/C [7] 81.1% | viability, T/C [8] 103% | viability, T/C [9] 124% | viability, T/C [10] 109% | viability, T/C [11] 45.1% | viability, T/C [13] 85.3% | viability, T/C [14] 103% | viability, T/C [15] 111% | viability, T/C [16] 96.2% | viability, T/C [17] 48.6% | viability, T/C [19] 93.1% | viability, T/C [20] 119% | viability, T/C [21] 106% | viability, T/C [22] 86.1% | viability, T/C [23] 47.6% | viability, T/C [25] 77.7% | viability, T/C [26] 85.8% | viability, T/C [27] 99.6% | viability, T/C [28] 91% | viability, T/C [29] 48.5% | viability, T/C [31] 76.7% | viability, T/C [32] 91.2% | viability, T/C [33] 93.9% | viability, T/C [34] 92.1% | viability, T/C [35] 38.4% | viability, T/C [37] 90.6% | viability, T/C [38] 107% | viability, T/C [39] 93.8% | viability, T/C [40] 55.7%
3.05 µM: IC50 [2]
1.13 µM: IC50 [6]
active: viability, T/C [12] 6.48% | viability, T/C [18] 5.51% | viability, T/C [24] 9.65% | viability, T/C [30] 3.83% | viability, T/C [36] 1.39% | viability, T/C [41] 2.04% | viability, T/C [42] 0.32%

C=CC(=O)N1CCN(c2nc(OCC3CCCN3C)nc3c2CCN(c2cccc4cccc(C)c24)C3)CC1CC#N (stereo not given)
inactive: viability, T/C (compound 0.03 µM) 94.9% [middle of 9 runs] | viability, T/C (compound 0.949 µM) 73.6% [middle of 9 runs] | viability, T/C (compound 3 µM) 80.8% [middle of 9 runs]
> 3 µM: IC50 (compound alone, run of 05/05/2024)
